Experimental data taken from ChEMBL document CHEMBL4483862, “Open-source discovery of chemical leads for next-generation chemoprotective antimalarials” (2018).

Test system: Plasmodium berghei
Assay: Luciferase/luciferin-expressing antifolate-resistant parasites were used to infect a culture of HepG2 cells that were pre-incubated with compounds. Infected hepatocytes emit light due to the luciferase reaction. Assay results are presented as the percent inhibition of light emission compared to control. […]
Format: functional
Conditions: sporozoite; for IC50: read-out: LUCIFERASE INFECTION ASSAY - IC50; for IC90: read-out: LUCIFERASE INFECTION ASSAY - IC90

| Compound | IC50 | IC90 |
| --- | --- | --- |
| Cc1ccc(-c2nc(C(=O)NCCCN(C)C)cc3c2[nH]c2ccccc23)cc1 | > 8.54 µM | > 8.54 µM |
| CN1C=C/C(=C/c2ccc3ccccc3[n+]2C)c2ccccc21 | 1.06 µM | 5.18 µM |
| CN(NS(=O)(=O)c1ccc(Cl)cc1)c1cnn(C)c(=O)c1Cl | > 9.09 µM | > 9.09 µM |
| Clc1ccc2c(c1)nnc1nnnn12 | 1.66 µM | 1.91 µM |
| CN1/C(=C/C=C/c2ccc3ccccc3[n+]2C)C=Cc2ccccc21 | 2.47 µM | 2.78 µM |
| N/C(CC(=O)Nc1ccc(F)cc1F)=N\O | > 14.4 µM | > 14.4 µM |
| CN(/N=C/c1cc(Cl)cc(Cl)c1O)C(=S)NC(C)(C)C | > 9.87 µM | > 9.87 µM |
| Cc1ccc(-n2c(-c3ccc(Cl)c(C)c3)csc2=N)c(C)c1 | > 9.03 µM | > 9.03 µM |
| Nc1nc(-c2ccc(OCc3ccc(F)cc3)cc2)cs1 | > 8.66 µM | > 8.66 µM |
| Cc1ccc2c(Cl)c(C(=O)Nc3nonc3-c3ccc(F)cc3)sc2c1 | 1.77 µM | 3.32 µM |
| Cc1ccc(C(C=CC(C#N)C#N)=Nc2ccc(Cl)cc2)cc1 | > 10.3 µM | > 10.3 µM |
| O=[N+]([O-])c1cc(Cl)ccc1Oc1c(Cl)cccc1Cl | > 10.4 µM | > 10.4 µM |
| O=C1OC(c2ccccc2)=N/C1=C\c1ccc([N+](=O)[O-])s1 | > 11 µM | > 11 µM |
| Cc1c(C)n(CCCO)c2ncn3nc(-c4ccc(Cl)cc4)nc3c12 | > 9.27 µM | > 9.27 µM |
| COc1cccc(-c2cc(=O)n3c(nc4ccccc43)[nH]2)c1 | > 11.3 µM | > 11.3 µM |
| Cc1ccnc(-n2c(C)c(C)c3c2ncn2nc(Cc4ccccc4)nc32)c1 | > 8.96 µM | > 8.96 µM |
| Cc1cc(C)c(O)c(/C=N/NC(=S)NC(C)(C)C)c1 | > 11.8 µM | > 11.8 µM |
| Cc1ccc2c(c1)CCCN2C(=S)Nc1cccc(C(F)(F)F)c1 | > 9.42 µM | > 9.42 µM |
| COc1ccccc1Oc1ccc(C(F)(F)F)cc1NC(=O)c1sc2ccccc2c1Cl | > 6.91 µM | > 6.91 µM |
| Cc1cc(C)n(-c2nc(C)c(Br)c(N(C)C)n2)n1 | > 10.6 µM | > 10.6 µM |
| O=c1c2cc(Br)cc(Br)c2nc(-c2ccccc2)n1-c1cc(C(F)(F)F)cc(C(F)(F)F)c1 | > 5.57 µM | > 5.57 µM |
| COc1c(Cl)cc(Cl)c(OC)c1C(=O)NC(=O)Nc1cc(C(F)(F)F)cc(C(F)(F)F)c1 | 2.06 µM | 2.23 µM |
| O=C(Nc1ccc(F)c(Cl)c1)c1ccc(F)c(Cl)c1 | > 10.9 µM | > 10.9 µM |

| Compound | IC50 | IC90 |
| --- | --- | --- |
| CCOC(=O)c1c[nH]c2cc(Cl)cc(Cl)c2c1=O | > 11.5 µM | > 11.5 µM |
| CC(C)(C)c1ccc(C(=O)N/N=C/c2cc(Cl)cc(Cl)c2O)cc1 | > 9.03 µM | > 9.03 µM |
| CC(C(=O)Nc1ccc(O)cc1)c1ccc2c(c1)[nH]c1ccc(Cl)cc12 (stereo not drawn) | > 9.05 µM | > 9.05 µM |
| O=C(NNC(=S)Nc1cc(C(F)(F)F)cc(C(F)(F)F)c1)c1cccnc1Oc1ccccc1 | > 6.59 µM | > 6.59 µM |
| CC(C)[C@H](NS(=O)(=O)c1ccccc1)C(=O)NCc1ccccc1 | > 9.53 µM | > 9.53 µM |
| Cc1ccc(S(=O)(=O)Oc2ccc(Cl)cc2Sc2cc(Cl)ccc2OS(=O)(=O)c2ccc(C)cc2)cc1 | > 5.54 µM | > 5.54 µM |
| O=C(Cc1cccs1)Nc1ccc(Cl)c(C(F)(F)F)c1 | > 10 µM | > 10 µM |
| Cc1cc(Oc2ccc(C(F)(F)F)cc2N=CC(C#N)C#N)cc(C)c1Cl | > 8.42 µM | > 8.42 µM |
| COc1cccc(-c2cc(=O)n(-c3ccc(F)cc3)[nH]2)c1 | > 11.6 µM | > 11.6 µM |
| CCOC(=O)c1c[nH]c2c(F)cc(F)cc2c1=O | > 13 µM | > 13 µM |
| S=C(Nc1ccc(C2=NCCO2)cc1)Nc1ccc(Cl)c(Cl)c1 | > 9.01 µM | > 9.01 µM |
| CC(C)NCC(=O)Nc1cccc2c1C(=O)c1ccccc1C2=O | 8.29 µM | > 10.2 µM |
| C=CCNC(=O)COc1ccc2c(=O)c(-c3ccc(Cl)cc3)c(C)oc2c1 | > 8.6 µM | > 8.6 µM |
| CC(C)(C)NC(=S)N/N=C/c1c(O)ccc2ccccc12 | 2.97 µM | 6.74 µM |
| Nc1cc(C(F)(F)F)ccc1Oc1ccc(Cl)cc1Cl | > 10.2 µM | > 10.2 µM |
| CC(C)(C)c1ccc(OS(=O)(=O)c2ccc(Oc3c(Cl)cccc3[N+](=O)[O-])cc2)cc1 | > 7.14 µM | > 7.14 µM |
| Cc1ccc(SCc2ccccc2C(=O)Nc2cc(Cl)ccc2O)cc1 | > 8.6 µM | > 8.6 µM |
| O=C(Nc1ccc(Oc2ccc(OC(F)(F)F)cc2)cc1)Nc1ccc(OC(F)(F)F)cc1 | > 6.99 µM | > 6.99 µM |
| COc1cccc(-n2c(C)cc(C(=O)CSc3ncc(C#N)c(N)n3)c2C)c1 | > 8.39 µM | > 8.39 µM |
| CC(C)(C)NC(=S)Nc1cc(C(F)(F)F)c(Cl)cc1Cl | > 9.56 µM | > 9.56 µM |
| Cc1nn(-c2ccccc2)nc1C(=O)NNC(=S)Nc1ccc(Cl)cc1 | > 8.53 µM | > 8.53 µM |
| FC(F)(F)c1ccc2nc(SCc3c(Cl)cccc3Cl)[nH]c2c1 | > 7.98 µM | > 7.98 µM |
| Oc1c(Cl)cc(Cl)cc1C1Nc2cccc3cccc(c23)N1 | > 9.96 µM | > 9.96 µM |

| Compound | IC50 | IC90 |
| --- | --- | --- |
| Cc1c(C(=O)Nc2nonc2-c2ccc3c(c2)CCCC3)oc2ccccc12 | > 8.84 µM | > 8.84 µM |
| Cc1ccc(S(=O)(=O)c2ccc(-c3ccccc3)cc2)cc1 | > 10.7 µM | > 10.7 µM |
| Nc1c(C(=O)Nc2nc3ccccc3s2)sc2ncccc12 | 0.00465 µM | 0.512 µM |
| CCCCn1c(CSc2ccccn2)cn(-c2nnc(C(C)(C)C)s2)c1=O | > 8.18 µM | > 8.18 µM |
| Cc1cc(Cl)cc(/C=N/NC(=S)NC(C)(C)C)c1O | 3.66 µM | 3.97 µM |
| O=C(c1ccc2cc[nH]c2c1)N1CCN(C/C=C/c2ccccc2)CC1 | 7.41 µM | 9.08 µM |
| CCCCCc1ccc(NC(=O)NC2=NCCS2)cc1 | > 11.3 µM | > 11.3 µM |
| COc1ccc(C(=O)Nc2nonc2-c2ccc(F)cc2)cc1Cl | 3.16 µM | 3.66 µM |
| Cc1nc2c3c(C)c(C)n(C4CCCCCC4)c3ncn2n1 | > 11.1 µM | > 11.1 µM |
| O=C(c1cc2cc(Cl)ccc2o1)N1CCN(Cc2ccc3c(c2)OCO3)CC1 | > 8.27 µM | > 8.27 µM |
| O=c1cc(O)c2c(=O)n3c4c(cccc4c2o1)CCC3 | > 12.3 µM | > 12.3 µM |
| O=C1/C(=C\c2ccccn2)N(CCc2ccccc2)S(=O)(=O)c2ccccc21 | > 8.45 µM | > 8.45 µM |
| Cc1nc(N2CCC(C)CC2)nc2c1C(=O)CC(/C=C/c1ccccc1)C2 (stereo not drawn) | > 9.13 µM | > 9.13 µM |
| CCC(C)NC(=S)N/N=C/c1cc(Cl)cc(Cl)c1O (stereo not drawn) | > 10.3 µM | > 10.3 µM |
| N#CC(C#N)C=Nc1cc(C(F)(F)F)ccc1N1CCCC1 | > 10.8 µM | > 10.8 µM |
| CC1CN(S(=O)(=O)c2cc(Cl)c(Oc3ccc([N+](=O)[O-])cc3Cl)c(Cl)c2)CC(C)O1 (stereo not drawn) | > 6.66 µM | > 6.66 µM |
| CCOC(=O)c1cc(C#N)c(C)nc1Sc1ccccc1NC(=O)Nc1ccc(SC(F)(F)F)cc1 | > 6.2 µM | > 6.2 µM |
| CCCCCCCOc1ccc(C(=O)CCC(=O)O)cc1 | > 11.3 µM | > 11.3 µM |
| COc1ccc(-c2nc(C(=O)NC3CCCC3)cc3c2[nH]c2ccccc23)cc1 | 8.53 µM | > 8.56 µM |
| O=S(=O)(Oc1cccc2[nH]ccc12)c1ccc(Cl)cc1Cl | > 9.64 µM | > 9.64 µM |
| CC(C)(C)c1ccc(NC(=O)N2CCCN(Cc3ccccc3)CC2)cc1 | 8.75 µM | > 9.03 µM |
| Cc1cc(NC(=S)NNC(=O)c2cccnc2Oc2ccccc2)ccc1Br | > 7.22 µM | > 7.22 µM |
| C/C(=N\NC(=S)NCC(C)(C)C)c1cc(F)ccc1O | > 11.1 µM | > 11.1 µM |

| Compound | IC50 | IC90 |
| --- | --- | --- |
| O=C(NNC(=S)Nc1ccc(Cl)c(Cl)c1)c1cccnc1Oc1ccccc1 | > 7.62 µM | > 7.62 µM |
| Cc1cc(Oc2ccc(C(F)(F)F)cc2NS(=O)(=O)c2cc(C(F)(F)F)cc(C(F)(F)F)c2)cc(C)c1Cl | > 5.58 µM | > 5.58 µM |
| Cc1[nH]c(=O)c(C#N)cc1C(=O)CSc1ccc(C(C)(C)C)cc1 | > 9.69 µM | > 9.69 µM |
| CCOC(=O)c1cnc2cc(Cl)c(F)cc2c1Sc1ccc(Cl)cc1 | > 8.33 µM | > 8.33 µM |
| O=C1/C(=C\c2ccccn2)N(Cc2ccccc2)S(=O)(=O)c2ccccc21 | 2.87 µM | 5.19 µM |
| CC1Cc2nc(N)nc(N)c2CC1C (stereo not drawn) | > 17.2 µM | > 17.2 µM |
| O=C(Nc1ccc(F)c(Cl)c1)c1cc2ccccc2s1 | > 10.8 µM | > 10.8 µM |
| COc1ccc(OC)c(C(=O)c2oc3cc(NC(=O)C4CC4)ccc3c2C)c1 | 0.214 µM | 0.519 µM |
| O=C(On1c(-c2ccccc2)nc2ccccc2c1=O)c1ccc(F)cc1 | > 9.16 µM | > 9.16 µM |
| COc1ccccc1N1CCN(C(=O)c2cc3cc(Cl)ccc3o2)CC1 | > 8.9 µM | > 8.9 µM |
| COc1ccc(S(=O)(=O)N2CCN(c3cc(C)c4ccccc4n3)CC2)cc1 | > 8.3 µM | > 8.3 µM |
| O=C(c1c[nH]c2ccccc12)N1CCC(Cc2ccccc2)CC1 | > 10.4 µM | > 10.4 µM |
| CC(C)(C)NC(=S)N/N=C/c1cccc(O)c1O | > 12.3 µM | > 12.3 µM |
| O=[N+]([O-])c1ccc(OCc2ccccc2)c(Cl)c1 | > 12.5 µM | > 12.5 µM |
| CCOC(=O)c1cnc2cc(Cl)c(F)cc2c1N1CCOCC1 | > 9.74 µM | > 9.74 µM |
| S=c1[nH]nc(-c2cccnc2Oc2ccccc2)n1-c1ccc(Cl)c(Cl)c1 | > 7.95 µM | > 7.95 µM |
| Nn1cc(C(F)(F)F)cc(Cl)c1=[N+]1CCNCC1 | > 7.29 µM | > 7.29 µM |
| O=[N+]([O-])c1ccc(CSc2nc3cc(Cl)c(F)cc3[nH]2)cc1 | > 7.88 µM | > 7.88 µM |
| CCc1nnc(NC(=O)C2CCCN2S(=O)(=O)c2ccc(OC)cc2)s1 (stereo not drawn) | 4.85 µM | > 8.32 µM |
| CC(c1ccc(-c2ccccc2)c(F)c1)c1nn2c(-c3ccco3)nnc2s1 (stereo not drawn) | 0.85 µM | 2.45 µM |
